# Results reported in ChEMBL document CHEMBL1156829 (Proc Natl Acad Sci U S A, 2008).
# Tests used:
# [1] = NOVARTIS: Cytotoxicity against human hepatocellular carcinoma cell line (Huh7); format: toxicity, cell-based, Huh-7; conditions: Huh7 cells (hepatocellular carcinoma cell line)
# Plasmodium falciparum [2] = assay: NOVARTIS: Inhibition of Plasmodium falciparum 3D7 (drug-susceptible) proliferation in erythrocyte-based infection assay; format: functional, organism-based; conditions: Plasmodium falciparum, 3D7
# Plasmodium falciparum [3] = assay: NOVARTIS: Inhibition of Plasmodium falciparum W2 (drug-resistant) proliferation in erythrocyte-based infection assay; format: functional, organism-based; conditions: Plasmodium falciparum, W2; read-out: EC50
Compound,CC50 [1],EC50 (Plasmodium falciparum [2]),EC50 (Plasmodium falciparum [3])
Cc1ccc(CN2C(=O)C(O)(CC(=O)c3ccccc3)c3ccccc32)cc1 (stereo not drawn),> 64500 nM,7010 nM,8960 nM
CC(C)(C)CC(C)(C)Nc1c(-c2ccccc2OC(=O)c2ccc(Br)cc2)nc2ccccn12,> 1430 nM,1310 nM,96 nM
O=c1c2[nH]c3ccccc3c2ncn1Cc1ccc2c(c1)OCO2,> 100000 nM,> 12500 nM,2000 nM
COc1ccc(OC)c(-c2ccc(O)c(CNCC3CC4C=CC3C43CC3)c2)c1 (stereo not drawn),20600 nM,350 nM,39.8 nM
COC(F)(C(=O)Nc1c(C)n(C)n(-c2ccccc2)c1=O)C(F)(F)F (stereo not drawn),> 9060 nM,1550 nM,> 1100 nM
CCCCCCN(C(=O)c1cccc(F)c1)C(CC)c1nc2ccccc2c(=O)n1-c1ccccc1OC (stereo not drawn),> 7320 nM,1070 nM,509 nM
OCCCCCCCCCCC[n+]1ccccc1,> 100000 nM,133 nM,365 nM
COc1ccc(CN2CCC(Sc3ncccn3)CC2)cc1,702 nM,> 1440 nM,950 nM
CCCC(C)C(C(=O)NCc1ccccc1)N1C(=O)c2cc(NC(C)=O)ccc2NC(=O)[C@@H]1c1ccccc1 (stereo partly drawn),9210 nM,> 1250 nM,< 7.12 nM
COc1ccc(NC(=O)C=Cc2ccccc2Cl)cc1,> 100000 nM,972 nM,577 nM
O=C(NCCCCNc1ccnc2cc(Cl)ccc12)c1ccco1,> 13100 nM,723 nM,1400 nM
CN(CCCNc1ccnc2cc(Cl)ccc12)C(=O)c1ccccc1,> 10000 nM,723 nM,391 nM
c1cc(NCc2ccc3c(c2)OCO3)n2ncc(-c3ccoc3)c2n1,> 10000 nM,> 1250 nM,> 1020 nM
CC(C)C(=O)NC(Nc1ccc([N+](=O)[O-])cc1)C(Cl)(Cl)Cl (stereo not drawn),68300 nM,195 nM,104 nM
Cc1ccc(NC(=O)c2c(I)cnn2C)cc1[N+](=O)[O-],> 100000 nM,192 nM,280 nM
CCCCNC(=O)c1ccc2c(c1)N=C(c1cccnc1)N(CCN1CCOCC1)C2,> 10400 nM,> 1250 nM,> 1060 nM
CCCCC(CC)C(=O)N1CCN(C(CC)c2nc3ccccc3c(=O)n2C)CC1 (stereo not drawn),> 100000 nM,374 nM,294 nM
COC(=O)c1c(N)n(-c2ccccc2OC)c2nc3ccccc3nc12,> 100000 nM,> 12500 nM,2700 nM

Compound,CC50 [1],EC50 (Plasmodium falciparum [2]),EC50 (Plasmodium falciparum [3])
CCCOc1ncnc2c1sc1nc3c(cc12)COC(C)(C)C3,> 10000 nM,> 967 nM,> 936 nM
c1ccc2c(NC3CCCC3)nc(Nc3ccc4c(c3)OCO4)nc2c1,12800 nM,525 nM,753 nM
CN(C)CCNc1ncnc2c1[nH]c1ccc(Br)cc12,21100 nM,100 nM,476 nM
CSc1ccc(NC(=O)N2CCCn3cccc3C2c2ccc(C(F)(F)F)cc2)cc1 (stereo not drawn),> 100000 nM,3990 nM,1810 nM
COc1ccc(C(=O)C(C)[n+]2ccccc2-c2ccccn2)cc1 (stereo not drawn),> 12100 nM,602 nM,> 751 nM
COc1cccc2c1C(=O)c1c(O)c3c(c(O)c1C2=O)C[C@@](O)(C(=O)CO)C[C@@H]3O[C@@H]1C[C@H](N)[C@H](O)[C@H](C)O1,485 nM,48.6 nM,47.7 nM
O=[N+]([O-])c1ccc(N2CCCN(C(=S)Nc3ccccc3)CC2)nc1,> 100000 nM,91.5 nM,80.1 nM
O=C(Nc1ccccc1O)c1ccc(Cl)cc1,36200 nM,3260 nM,1090 nM
CCCOC(=O)C1=C(C)NC2=C(C(=O)CC(c3ccc(OC)c(OC)c3)C2)C1c1cccc(C)c1 (stereo not drawn),32000 nM,91.3 nM,35.9 nM
c1ccc(CCNc2cccc3ccccc23)cc1,> 10000 nM,128 nM,< 7.52 nM
NS(=O)(=O)c1ccc(CCNC(=O)C=Cc2ccc3c(c2)OCO3)cc1,> 100000 nM,> 7760 nM,3390 nM
CCN(CC)CCCN(Cc1cc2cc3c(cc2[nH]c1=O)OCCO3)C(=S)Nc1cccc(Cl)c1,21200 nM,1160 nM,890 nM
COC(=O)C1=C(C)NC(=Cc2cc(C)n(-c3ccc(Cl)c(Cl)c3)c2C)C1=O,> 100000 nM,6900 nM,6320 nM
O=[N+]([O-])c1ccc(NN=Cc2cccs2)c(S(=O)(=O)N2CCCCCC2)c1,> 10000 nM,> 1250 nM,> 899 nM
O=C(Nc1ccon1)c1cc(-c2cccnc2)nc2ccc(Br)cc12,> 81000 nM,1970 nM,2510 nM
CCC[n+]1ccc(/C=C/c2ccc(Br)cc2)cc1,> 10000 nM,645 nM,382 nM
N=c1ccn(CC(=O)N2CCCc3ccccc32)c2ccccc12,> 100000 nM,1490 nM,453 nM
OCC1CCCCN1Cc1cc(-c2ccccc2)ccc1O (stereo not drawn),> 10000 nM,1030 nM,< 23.2 nM
